Experimental data published in patent US20250135072A1, “COMPOSITIONS COMPRISING A BIOABSORBABLE POLYMER AND METABOLIC INHIBITOR” (Board of Trustees of Michigan State University, priority 2022, published 2025).

Tests used:
primary BMDMs [1] = experiment: Crystal violet cell viability / cell number assay in primary BMDMs; type: cell-based, mouse; conditions: BMDMs treated with amorphous or crystalline PLA extract
Method: Breakdown products of PLA (hereafter “extracts”) were generated in serum-containing media and used after twelve days of incubation in a shaker at 37° C. […] Immune cells were maintained in the PLA extracts for twelve days. BMDMs derived from C57BL/6J mice (Jackson Laboratories) of 3-4 months were used. Mouse embryonic fibroblasts (NIH 3T3 cells, hereafter “MEFs”) were stably transfected with a Sleeping Beauty transposon plasmid (pLuBIG) encoding blasticidin resistance linked to eGFP, and luciferase. Bioluminescence of the fibroblasts served as in indicator of ATP levels. Cell viability was measured using the crystal violet staining assay at room temperature. 50 μL media containing cells is incubated with 150 μL of 99.9% methanol for 15 minutes. 100 μL of 0.5% crystal violet (25% methanol) is added for 20 minutes. Each well is emptied and washed twice with 200 μL phosphate buffered saline for 2 minutes. Absorbance (optical density) was acquired at 570 nm using the SpectraMax M3 Spectrophotometer (Molecular Devices) and SoftMax Pro software (ver. 7.0.2).

primary BMDMs [2] = experiment: Seahorse assays (OCR, ECAR, PER) in primary BMDMs; type: cell-based, mouse; conditions: for metabolic reprogramming: BMDMs exposed to amorphous or crystalline PLA extract, dose-dependent; for ECAR / OCR / PER: Example 2, BMDMs exposed to PLA extracts of varied stereochemistries plus inhibitor
Excerpt: To determine the metabolic pathways responsible for the observed bioenergetic changes, Seahorse assays were used to measure oxygen consumption rate (OCR), extracellular acidification rate (ECAR) and lactate-linked proton efflux rate (PER) in a customized medium (pH 7.4). Basal measurements of OCR, ECAR, and PER were obtained in real time using the Seahorse XFe-96 Extracellular Flux Analyzer (Agilent Technologies). Prior to running the assay, cell culture medium was washed with and replaced by the Seahorse XF DMEM medium (pH 7.4) supplemented with 25 mM D-glucose and 4 mM glutamine. The Seahorse plates were equilibrated in a non-CO2 incubator for an hour prior to the assay. The Seahorse ATP rate and cell energy phenotype assays were run according to manufacturer's instruction and all reagents for the Seahorse assays were sourced from Agilent Technologies. Wave software (Version 2.6.1) was used to export Seahorse data directly as means±standard deviation (SD).
Seahorse assays measures ECAR as an index of glycolytic flux, OCR as an index of oxidative phosphorylation and PER as an index of monocarboxylate transporter function in live cells; and are used to assess for metabolic reprogramming. Primary BMDMs exposed to amorphous PLA extract were metabolically altered, showing a 2-fold increase in oxidative phosphorylation (OCR; FIG. 10), 3.5-fold increase in glycolytic flux (ECAR; FIG. 11) and 3.5-fold increase in monocarboxylate transporter activity (PER; FIG. 12) in comparison to untreated BMDMs.

[3] = tested on: Mouse embryonic fibroblasts (NIH 3T3 cells); experiment: ATP levels in MEFs (luciferase bioluminescence in live cells; standard ATP assay on lysates); type: cell-based; conditions: for Total ATP levels in MEFs: MEFs exposed to each of PLLA, PDLA and stereocomplex PLA extracts plus inhibitor; for increased bioenergetic (ATP) levels: amorphous or crystalline PLA extract-treated fibroblasts plus inhibitor, spatiotemporal and dose-dependent
Method: Breakdown products of PLA (hereafter “extracts”) were generated in serum-containing media and used after twelve days of incubation in a shaker at 37° C. The in vitro degradation mimics PLA degradation in vivo. Immune cells were maintained in the PLA extracts for twelve days. BMDMs derived from C57BL/6J mice (Jackson Laboratories) of 3-4 months were used. Mouse embryonic fibroblasts (NIH 3T3 cells, hereafter “MEFs”) were stably transfected with a Sleeping Beauty transposon plasmid (pLuBIG) encoding blasticidin resistance linked to eGFP, and luciferase. Bioluminescence of the fibroblasts served as in indicator of ATP levels. Cell viability was measured using the crystal violet staining assay at room temperature. 50 μL media containing cells is incubated with 150 μL of 99.9% methanol for 15 minutes. 100 μL of 0.5% crystal violet (25% methanol) is added for 20 minutes. Each well is emptied and washed twice with 200 μL phosphate buffered saline for 2 minutes. Absorbance (optical density) was acquired at 570 nm using the SpectraMax M3 Spectrophotometer (Molecular Devices) and SoftMax Pro software (ver. 7.0.2).
To exclude the possibility that changing luciferase expression (by transcription or translation) was responsible for observed bioenergetic changes, wild-type cells were lysed after exposure to PLA extract. Controlled amounts of luciferase and D-luciferin were added to the standard ATP assay. By day 12, there was a 1.9-and 2.3-fold increase in ATP levels among cells exposed to crystalline and amorphous PLA extract, respectively (FIG. 2). To exclude the possibility that PLA extracts affect the biochemical reaction underlying bioenergetic measurements, lysed fibroblasts were exposed to D-luciferin, luciferase and control or PLA extract.
ATP levels in live cells were assessed by bioluminescence on the IVIS Spectrum in vivo imaging system (PerkinElmer) after addition of 150 μg/mL D-luciferin (PerkinElmer). For lysed cells, the standard ATP/ADP kits (Sigma-Aldrich) were used according to manufacturer's instructions.

[4] = tested on: primary macrophages (BMDMs); experiment: Cytokine and chemokine protein levels in macrophage supernatants (MILLIPLEX multiplex, IL-6 ELISA); type: cell-based, mouse; conditions: for abnormally increased levels of IL-1β / abnormally increased levels of IL-6 / abnormally increased levels of MCP-1 / abnormally increased levels of TNF-α: macrophages exposed to PLA extract plus inhibitor
Method: Cytokine and chemokine levels were measured using a MILLIPLEX MAP mouse magnetic bead multiplex kit (MilliporeSigma) to assess for IL-6, MCP-1, TNF-a, IL-1b, IL-4, IL-10, IFN-1 and 1L-13 protein expression in supernatants. Data was acquired using Luminex 200 (Luminex Corporation) by the xPONENT software (Version 3.1, Luminex Corporation). […] For statistical analyses, those values were expressed as 3.1 pg/mL. Values exceeding the dynamic range of the assay, in accordance with manufacturer's instruction, were excluded. Additionally, IL-6 ELISA kits (RayBiotech) for supernatants were used according to manufacturer's instructions.

[5] = In-vitro studies indicating effective concentration of 2DG; type: cell-based
Method: Amorphous PLA was compounded with 2DG at 190° C. for 3 mins in a DSM 15 cc mini-extruder (DSM Xplore) and pelletizer (Leistritz Extrusion Technology). Our in-vitro studies indicate 1 mM 2DG to be an effective concentration. Accordingly, we estimated that 18 mg of 2DG in 10 g of amorphous PLA will approximate effective concentrations after accounting for potential thermal degradation of 2DG, converting mM to w/w values. […] To exclude the effect of melt-blending as a confounder in our studies, amorphous PLA controls were processed under the same thermal conditions to make “reprocessed” amorphous PLA. Pellets from melt-blending were made into 1.75 mm diameter filaments using an extruder (Filabot EX2) at 170° C. with air set at 93. For surgical implantation, amorphous PLA filaments were cut into 1 mm lengths; four biomaterials were subcutaneously implanted on the dorsum (back) of each mouse, with two cranially (2.5 cm apart) and two caudally (2.5 cm apart).

[6] = macrophages exposed to the PLLA and PDLA extracts plus inhibitor
[7] = BMDMs, prolonged (day 7) exposure to L-lactic acid

For `O=CC[C@@H](O)[C@H](O)[C@H](O)CO` [2DG, 2-deoxyglucose], the cell viability (primary BMDMs [1]) was “selectively reduced”, the metabolic reprogramming (primary BMDMs [2]) was “inhibited” and the ECAR (primary BMDMs [2]) was “dose-dependent decrease”. For the same compound, the OCR (primary BMDMs [2]) was “dose-dependent decrease”, the PER (primary BMDMs [2]) was “dose-dependent decrease” and the “Total ATP levels in MEFs” value [3] was “decreased”. The “increased bioenergetic (ATP) levels” value [3] was “inhibited”, the “abnormally increased levels of IL-1β” value [4] was “modulated” and the “abnormally increased levels of IL-6” value [4] was “modulated”. The “abnormally increased levels of MCP-1” value [4] was “modulated”, the “abnormally increased levels of TNF-α” value [4] was “modulated” and the IL-10 levels [4, 6] was “increased”. It also gave an effective concentration [5] of 1 mM.
In the case of `NOCC(=O)O` [aminooxyacetic acid], the cell viability (primary BMDMs [1]) is reported as “selectively reduced”, the metabolic reprogramming (primary BMDMs [2]) is reported as “inhibited” and the ECAR (primary BMDMs [2]) is reported as “dose-dependent decrease”. The OCR (primary BMDMs [2]) was “dose-dependent decrease”, the PER (primary BMDMs [2]) was “dose-dependent decrease” and the “Total ATP levels in MEFs” value [3] was “decreased”. The “increased bioenergetic (ATP) levels” value [3] was “inhibited”, the “increase in IL-10 expression” value ([4]; amorphous PLA extract plus inhibitor, relative to macrophages exposed to PLA extract) was 3.4 fold and the IL-10 expression ([4]; crystalline PLA extract plus inhibitor, relative to macrophages exposed to PLA extract) was “unchanged”. For the same compound, the “abnormally increased levels of IL-1β” value [4] was “modulated”, the “abnormally increased levels of IL-6” value [4] was “modulated” and the “abnormally increased levels of MCP-1” value [4] was “modulated”. The “abnormally increased levels of TNF-α” value [4] was “modulated”, the IL-10 levels [4, 6] was “increased” and the IL-10 levels ([4]; macrophages treated with stereocomplex PLA extracts plus inhibitor) was “further increased”.
In the case of `O=C(C=Cc1cccnc1)c1ccncc1` [3PO, 3-(3-pyridinyl)-1-(4-pyridinyl)-2-propen-1-one], the cell viability (primary BMDMs [1]) is reported as “selectively reduced”, the metabolic reprogramming (primary BMDMs [2]) is reported as “inhibited” and the ECAR (primary BMDMs [2]) is reported as “dose-dependent decrease”. For the same compound, the OCR (primary BMDMs [2]) was “dose-dependent decrease”, the PER (primary BMDMs [2]) was “dose-dependent decrease” and the “Total ATP levels in MEFs” value [3] was “decreased”. The “increased bioenergetic (ATP) levels” value [3] was “inhibited”, the cytokine values ([4]; in some experiments) was less than 3.2 pg/mL and the “abnormally increased levels of IL-1β” value [4] was “modulated”. The “abnormally increased levels of IL-6” value [4] was “modulated”, the “abnormally increased levels of MCP-1” value [4] was “modulated” and the “abnormally increased levels of TNF-α” value [4] was “modulated”.
For `C[C@H](O)C(=O)O` [L-lactic acid], the “increase in glycolytic flux (ECAR)” value (primary BMDMs [2]; [7]) was 2.8 fold, the “increase in monocarboxylate transporter function (PER)” value (primary BMDMs [2]; [7]) was 2.8 fold and the “increase in oxidative phosphorylation (OCR)” value (primary BMDMs [2]; [7]) was 2.3 fold. For the same compound, the “increase in IL-6 protein expression” value ([4]; compared to untreated macrophages) was 2.3 fold.
